Measured values taken from article PMC12073438, “Stereoselectivity of In Vivo Processes and Bioactivity of Farrerol Enantiomers” (Molecules, 2025).

Tests used:
CYP2A6 = target: T1, CYP2A6 (Homo sapiens, UniProt P11509); test: CYP inhibition in liver microsomes (coumarin); conditions: CYP 2A6; marker substrate coumarin; liver microsomes
T1 sequence (P11509 1-494): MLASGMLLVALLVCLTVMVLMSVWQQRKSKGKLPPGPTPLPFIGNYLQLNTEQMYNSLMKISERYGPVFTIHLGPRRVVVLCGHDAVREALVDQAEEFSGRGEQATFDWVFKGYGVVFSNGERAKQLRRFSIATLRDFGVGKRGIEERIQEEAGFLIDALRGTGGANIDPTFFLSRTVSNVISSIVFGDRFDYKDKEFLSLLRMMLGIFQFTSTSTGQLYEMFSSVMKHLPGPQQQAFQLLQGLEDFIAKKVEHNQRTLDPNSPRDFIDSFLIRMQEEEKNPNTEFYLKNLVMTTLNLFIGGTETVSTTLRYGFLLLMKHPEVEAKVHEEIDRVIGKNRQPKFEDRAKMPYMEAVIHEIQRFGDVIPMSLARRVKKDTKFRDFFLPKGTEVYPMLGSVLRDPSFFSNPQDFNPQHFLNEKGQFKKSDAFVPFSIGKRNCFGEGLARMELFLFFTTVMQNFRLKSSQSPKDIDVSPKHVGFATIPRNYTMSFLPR
Protocol: (§1) A liver microsome working solution (20 mg/mL) contained potassium phosphate buffer (0.1 M, pH 7.4), hepatic microsomes and marker substrate solution, which phenacetin, diclofenic acid, S-mephenytoinwer, dextromethorphan, midazolam, coumarin and chlorzoxazone used as substrates for […], CYP2C9, CYP2C19, CYP2D6, CYP3A4/5, CYP2A6 and CYP2E1, respectively. In brief, 238.5 µL of liver microsome working solution was placed in a 1 mL EP tube. […] The reaction was started by injecting NADPH (1 mM), and the resulting mixture was incubated at 37 °C for 10 min. After centrifuging at 4000 rpm for 15 min, the supernatant was transferred and analyzed using LC-MS/MS to detect the corresponding metabolites. Each incubation was conducted in triplicate (n = 3).
(§2) An API 4000 LC/tandem mass spectrometry was used to analyze the concentration of metabolites of various chemical agents using a validated mode. An Atlantis T3 column (2.1 mm × 50 mm, 5 μm) was utilized, employing mobile phases consisting of a 0.1% formic acid solution (A) and a 0.1% acetonitrile formate solution (B). […] As for the detection of CYP 2E1 metabolite, the Flow composition was as follows: 0–0.30 min, 10% B; 0.30–1.30 min, 10–55% B; 1.30–1.50 min, 55–95% B; 1.50–2.00 min, 95% B; 2.00–2.01 min, 95–10% B; the low rate was 0.85 mL/min. ESI was conducted in positive ion mode. MRM was utilized to quantify each metabolite, detecting the following transitions: m/z 152.1/110 for acetaminophen, 312.1/230.0 for 4′-Hydroxydiclofenac, 235.0/150.0 for 4′-hydroxymephentoin, 258.2/199.1 for Dextrorphan, 342.1/203.0 for 1′-hydroxymidazolam, 161.1/133.1 for hydroxycoumarin, and 184.0/120.0 for 6-hydroxyclozoxadone.

[1] = Stereoselective pharmacokinetics in rat plasma; format: in vivo, Sprague–Dawley rats
Protocol: The pharmacokinetic data were optimally characterized by a noncompartmental model. The mean concentration-time profiles for the farrerol enantiomers are illustrated in Figure 3, along with the corresponding key pharmacokinetic parameters presented in Table 2.
Twenty-five rats were randomly divided into five experimental groups (A, B, C, D, and E). Groups A and B received farrerol racemate via intragastric administration at doses of 150 mg/kg and 75 mg/kg, respectively. Group C was administered 4 mg/kg of farrerol racemate through caudal intravenous administration. […] Blood samples (300 μL) were obtained from the orbital venous plexus into heparinized tubes at various time points: 0.25, 0.5, 1, 2, 3, 5, 7, 9, 12, and 24 h following gavage administration, and at 0.083, 0.167, 0.25, 0.5, 1, 1.5, 2, 2.5, 3, and 5 h post-intravenous administration. Plasma was separated by centrifugation (3000 rpm, 10 min) and stored at −80 °C until analysis.
A total of 150 μL of plasma and 50 μL of the internal standard solution were added to a 1.5 mL EP tube and mixed using a vortex for 30 s. Subsequently, 500 μL of ether was introduced, and the mixture was vortexed for 5 min. Following centrifugation at 10,000 rpm for 10 min, the resulting organic layer was carefully transferred to a separate tube. Each sample underwent two extraction processes. The resulting ether layer was then evaporated to dryness using a continuous air stream at room temperature. A 250 μL aliquot of methanol was employed to re-dissolve the residue, utilizing vortex mixing for 2 min. Following centrifugation at 14,000 rpm for 10 min, the supernatant was subsequently injected into the HPLC-MS system for analysis.
(§3) Stereoselective chromatographic analysis of farrerol enantiomers was conducted utilizing an ACQUITY UPLC I-Class UPLC system (Waters, Milford, MA, USA), which is equipped with a quaternary pump and an autosampler. The chiral separation was carried out employing a Chiralpak OJ-RH column (250 mm × 4.6 mm, 5 μm), which was obtained from Daicel Chemical Industries (Shanghai, China). The mobile phase consisted of ACN-H2O (60:40, v/v), and the constant flow rate was 0.5 mL/min. The column temperature was set at 25 °C, and the injection volume was 10 μL.
(§4) Mass detection was conducted using a triple quadrupole mass spectrometer (Waters Co., USA) equipped with an electrospray ionization (ESI) source. The detection of enantiomers and internal standards (IS) was carried out in multiple reaction monitoring (MRM) mode utilizing negative ionization. The m/z 299→179 for enantiomers and m/z 267→252 for IS were selected as detecting ions for quantitation. The collision energies (CE) were established at 22 eV and 20 eV, respectively. The primary mass spectrometry (MS) parameters were configured as follows: capillary voltage was set to 3.5 kV, ion source temperature was maintained at 150 °C, desolvation gas flow rate was 800 L/h, and the cone voltage (CV) was adjusted to 1.3 V.
(§5) Pharmacokinetic analysis was conducted utilizing the Drug and Statistics (DAS) 2.0 software provided by the Chinese Pharmacological Society. To assess the differences in pharmacokinetic parameters, the IC50 values of the evaluated CYP enzymes and the permeability coefficients between the two farrerol enantiomers, paired sample t-tests and independent sample t-tests were performed. Statistical significance was defined as * p < 0.05 and ** p < 0.01. All results are presented as mean values ± standard deviation (SD).

[2] = Stereoselective pharmacokinetics in rat liver tissue; format: in vivo, Sprague–Dawley rats; conditions: rat liver tissue; i.g. 40 mg/kg racemate, within 24 h
Protocol: (§6) Forty-two rats were divided randomly into seven groups (6 rats per time point at 0.5, 1, 2, 4, 8, 12, and 24 h) and were orally administered farrerol racemate at a dose of 40 mg/kg. Rats from each group were euthanized, and kidney and liver tissues were subsequently obtained. After washing three times using 0.9% sodium chloride solution, the attached blood and fat tissues were removed. Afterward, 0.5 g of the precisely weighed liver and kidney tissues were added to 1 mL 0.9% sodium chloride solution and homogenized in an ice bath. Subsequently, 150 µL of supernatant was transferred into a 2.0 mL EP tube for pre-treatment, in the same way as the pretreatment of plasma samples (see Section 3.4.1).
as §3, §4, §5

[3] = Stereoselective pharmacokinetics in rat kidney tissue; format: in vivo, Sprague–Dawley rats; conditions: rat kidney tissue; i.g. 40 mg/kg racemate, within 24 h
Protocol: as §6, §3, §4, §5

CYP3A4/5 = test: CYP inhibition in liver microsomes (midazolam); conditions: human, microsomes, pH 7.4
Protocol: as §1, §2

CYP2C9 = CYP2C9 (Homo sapiens, UniProt P11712); test: CYP inhibition in liver microsomes (diclofenac); conditions: CYP 2C9, marker substrate diclofenac
Protocol: as §1, with “After centrifuging at 4000 rpm for 15 min, the supernatant was transferred and analyzed using LC-MS/MS to detect the corresponding metabolites.” left out
An API 4000 LC/tandem mass spectrometry was used to analyze the concentration of metabolites of various chemical agents using a validated mode. An Atlantis T3 column (2.1 mm × 50 mm, 5 μm) was utilized, employing mobile phases consisting of a 0.1% formic acid solution (A) and a 0.1% acetonitrile formate solution (B). […] ESI was conducted in positive ion mode.

CYP1A2 = target: T2, CYP1A2 (Homo sapiens, UniProt P05177); test: CYP inhibition in liver microsomes (phenacetin); conditions: CYP 1A2, marker substrate phenacetin
T2 sequence (P05177 1-516): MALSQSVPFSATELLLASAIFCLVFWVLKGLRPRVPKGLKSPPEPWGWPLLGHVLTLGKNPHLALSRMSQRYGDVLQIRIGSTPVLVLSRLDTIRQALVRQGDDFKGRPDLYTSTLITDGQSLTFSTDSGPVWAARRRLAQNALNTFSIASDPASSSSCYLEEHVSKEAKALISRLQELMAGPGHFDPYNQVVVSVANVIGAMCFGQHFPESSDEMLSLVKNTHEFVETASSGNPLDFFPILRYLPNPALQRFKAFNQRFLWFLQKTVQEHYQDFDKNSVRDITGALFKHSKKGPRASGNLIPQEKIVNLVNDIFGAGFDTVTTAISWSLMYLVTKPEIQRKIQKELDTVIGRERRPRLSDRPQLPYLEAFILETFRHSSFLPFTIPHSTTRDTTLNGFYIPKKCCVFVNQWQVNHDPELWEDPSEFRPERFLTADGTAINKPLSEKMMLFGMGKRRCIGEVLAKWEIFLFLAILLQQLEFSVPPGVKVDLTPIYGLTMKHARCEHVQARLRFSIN
Protocol: as §1, §2

Sequence of CYP2C9 (P11712 whole entry): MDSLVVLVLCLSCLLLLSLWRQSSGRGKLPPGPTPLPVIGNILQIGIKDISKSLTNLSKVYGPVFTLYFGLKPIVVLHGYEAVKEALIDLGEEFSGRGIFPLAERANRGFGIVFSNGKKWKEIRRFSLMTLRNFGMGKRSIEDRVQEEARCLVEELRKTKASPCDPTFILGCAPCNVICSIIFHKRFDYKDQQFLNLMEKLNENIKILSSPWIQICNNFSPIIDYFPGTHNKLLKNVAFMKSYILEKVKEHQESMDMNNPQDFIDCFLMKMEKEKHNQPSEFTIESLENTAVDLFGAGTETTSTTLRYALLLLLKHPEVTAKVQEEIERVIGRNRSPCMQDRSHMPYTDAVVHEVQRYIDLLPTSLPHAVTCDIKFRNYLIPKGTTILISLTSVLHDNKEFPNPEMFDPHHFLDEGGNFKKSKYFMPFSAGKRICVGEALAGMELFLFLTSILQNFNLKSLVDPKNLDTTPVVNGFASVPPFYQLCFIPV

Q: With `N[C@@H]1C[C@H]1c1ccccc1` (racemic) [Tranylcypromine, reference compound] as the compound, how does the IC50 (CYP2A6) read?
A: 383 nM

Q: For `Cc1c(O)c(C)c2c(c1O)C(=O)CC(c1ccc(O)cc1)O2` (racemic) [racemic farrerol, 2,3-dihydro-5,7-dihydroxy-2-(4-hydroxyphenyl)-6,8-dimethyl-4-benzopyrone], which “enantiomeric fraction (EF) = E(+)/(E(+)+E(−))” value (“enantiomeric fraction” for short) ([1]; intravenous administration of racemate) is on record?
A: around 0.7

Q: What about the “enantiomeric fraction” value ([1]; oral administration of racemate (all doses)) of the same compound?
A: greater than 0.6

Q: What about the “enantiomeric fraction” value ([1]; oral dose of 75 mg/kg, approximately 1.5 to 24 h) of the same compound?
A: around 0.8

Q: And the “enantiomeric fraction” value [2]?
A: less than 0.5

Q: And the “enantiomeric fraction” value [3]?
A: less than 0.5

Q: For `CC(=O)N1CCN(c2ccc(OCC3COC(Cn4ccnc4)(c4ccc(Cl)cc4Cl)O3)cc2)CC1` (stereo not drawn) [ketoconazole, reference compound], which IC50 at 10 min (CYP3A4/5) is on record?
A: 10.4 nM

Q: With `Nc1ccc(S(=O)(=O)Nc2ccnn2-c2ccccc2)cc1` [sulfaphenazole, reference compound] as the compound, how does the IC50 (CYP2C9) read?
A: 219 nM

Q: With `O=c1cc(-c2ccccc2)oc2ccc3ccccc3c12` [β-naphthoflavone, reference compound] as the compound, how does the IC50 (CYP1A2) read?
A: 129 nM
